Measured values reported in the Deep4Chem optical property database.
Blank lines part the entries; values can stand above or below the compound they belong to.

Assay: photoluminescence quantum yield (fraction); solvent given as SMILES
[1] = in c1ccc2c(c1)c1ccccc1n2-c1ccc(-c2ccc(-n3c4ccccc4c4ccccc43)cc2)cc1

photoluminescence quantum yield (in CN(C)C=O): 0.12
SMILES: COC(=O)C(N)Cc1ccc(O[Si]2(Oc3ccc(CC(N)C(=O)OC)cc3)n3c4c5ccccc5c3/N=C3N=C(/N=c5/c6ccccc6/c(n52)=N/C2=NC(=N\4)/c4ccccc42)c2ccccc2\3)cc1 (stereo not drawn)

photoluminescence quantum yield (in C1CCOC1): 0.11
SMILES: COc1cc2c(cc1-c1ccc([N+](=O)[O-])cc1)Cc1c3c(c4c(c1-2)-c1cc(OC)c(-c2ccc([N+](=O)[O-])cc2)cc1C4)C(=O)N(CCC(C)C)C3=O

photoluminescence quantum yield (in C1CCOC1): 0.048
photoluminescence quantum yield (in ClC(Cl)Cl): 0.027
SMILES: CCCCCCCCc1ccc(-c2c3cc(-c4cc(CCCCCCCC)c(-c5ccc(-c6sc(/C=C7\SC(=S)N(CC)C7=O)cc6CCCCCCCC)s5)s4)sc3c(-c3ccc(CCCCCCCC)s3)c3cc(-c4cc(CCCCCCCC)c(-c5ccc(-c6sc(/C=C7\SC(=S)N(CC)C7=O)cc6CCCCCCCC)s5)s4)sc23)s1

photoluminescence quantum yield (in ClCCl): 0.11
SMILES: F[B-]1(F)Oc2ccccc2-c2c3c(c4c([n+]21)CCc1ccccc1-4)CCc1ccccc1-3

photoluminescence quantum yield (in ClCCl): 0.23
SMILES: c1ccc(C2=C(c3ccccc3)c3cccc4c3c(cc3nc5c(-c6ccccc6)ccc(-c6ccccc6)c5nc34)O2)cc1

photoluminescence quantum yield (in ClC(Cl)Cl): 0.65
SMILES: CC1=CC(C)=[N+]2C1=C(c1ccc(I)cc1)c1c(C)cc(C)n1[B-]2(OCc1ccccc1)OCc1ccccc1

photoluminescence quantum yield (in ClCCl): 0.72
SMILES: CN(C)c1ccc(/C=C/c2cc(/C=C/c3ccc(N(C)C)cc3)nc(/C=C/c3ccc(C(F)(F)F)cc3)n2)cc1

photoluminescence quantum yield (in ClCCl): 0.1
SMILES: CCCCn1c2ccc(C#N)cc2c2cc(C#N)ccc21

photoluminescence quantum yield (in ClC(Cl)Cl): 0
SMILES: CC1=CC(C)=[N+]2C1=C(c1ccc(I)cc1)c1c(C)cc(C)n1[B-]21Oc2ccccc2O1

photoluminescence quantum yield (in ClCCl): 0.0468
SMILES: CCCCCCOc1cc(/C=C/c2cc(OCCCCCC)c(/C=C/c3cc(OCCCCCC)c(C=C4C(=O)c5ccccc5C4=O)cc3OCCCCCC)cc2OCCCCCC)c(OCCCCCC)cc1C=C1C(=O)c2ccccc2C1=O

photoluminescence quantum yield (in CCO): 0.01
photoluminescence quantum yield (in ClC(Cl)Cl): 0.09
SMILES: CC[N+](CC)=c1ccc2c(-c3ccccc3C(=O)O)c3c(=O)oc4c5c6c(cc4c3oc-2c1)CCCN6CCC5

photoluminescence quantum yield (in CO): 0.56
SMILES: CCN(CC)c1ccc(C2=C3C(C)=CC(C)=[N+]3[B-](F)(F)n3c(C)cc(C)c32)cc1

photoluminescence quantum yield (in CO): 0.14
SMILES: CC1(C)C(/C=C/C2=C(Oc3ccc(CCN=C=S)cc3Cl)C(=C/C=C3/N(CCCS(=O)(=O)[O-])c4ccccc4C3(C)C)/CCC2)=[N+](CCCS(=O)(=O)[O-])c2ccccc21

photoluminescence quantum yield (in ClCCl): 0.17
SMILES: CCCCN(CCCC)c1ccc(C#Cc2cc(C#Cc3c(F)c(F)c(F)c(F)c3F)c(C#Cc3c(F)c(F)c(F)c(F)c3F)cc2C#Cc2ccc(N(CCCC)CCCC)cc2)cc1

photoluminescence quantum yield (in CS(C)=O): 0.02
photoluminescence quantum yield (in ClCCl): 0.22
SMILES: O=c1oc2ccccc2c2c1c(=O)oc1ccc3ccc(O)cc3c12

photoluminescence quantum yield (in CCO): 0.21
photoluminescence quantum yield (in ClC(Cl)Cl): 0.51
photoluminescence quantum yield (in O): 0.01
SMILES: CCN(CC)c1ccc2c(c1)oc(=O)c1c(-c3ccccc3C(=O)O)c3ccc(=[N+](CC)CC)cc-3oc12

photoluminescence quantum yield (in ClCCl): 0.64
SMILES: CC(C)c1cccc(C(C)C)c1N1C(=O)c2cccc3c(Oc4ccc(Cl)cc4)ccc(c23)C1=O

photoluminescence quantum yield (in ClCCl): 0.54
SMILES: CCOC(=O)c1ccc(C2=Cc3cc4ccccc4cc3P2(=O)c2ccccc2)cc1 (stereo not drawn)

Second part, the compound before the results:

SMILES: CCN(CC)/C(C)=N\c1ccc2c3c(cccc13)C(=O)c1ccccc1-2
photoluminescence quantum yield (in C1CCOC1): 0.17
photoluminescence quantum yield (in CCCCCC): 0.21
photoluminescence quantum yield (in CCO): 0.14
photoluminescence quantum yield (in CCOC(C)=O): 0.22
photoluminescence quantum yield (in CN(C)C=O): 0.15
photoluminescence quantum yield (in CO): 0.14
photoluminescence quantum yield (in Cc1ccccc1): 0.56
photoluminescence quantum yield (in ClC(Cl)(Cl)Cl): 0.31
photoluminescence quantum yield (in ClC(Cl)Cl): 0.49
photoluminescence quantum yield (in ClCCl): 0.5
photoluminescence quantum yield (in c1ccccc1): 0.55

SMILES: C[Si](C)(C)c1ccc(-c2ccc(-c3ccc(-c4ccc(-c5ccc([Si](C)(C)C)cc5)cc4)c4nsnc34)cc2)cc1
photoluminescence quantum yield (in C1CCOC1): 0.84

SMILES: CCOC(=O)COc1ccc(/C=C/c2cc(C)c3n2[B-](F)(F)[N+]2=C(c4[nH]c(C)cc4C)c4ccccc4C2=C3)cc1
photoluminescence quantum yield (in C1CCOC1): 0.34
photoluminescence quantum yield (in CC#N): 0.3
photoluminescence quantum yield (in CCCCCC): 0.73
photoluminescence quantum yield (in CO): 0.08
photoluminescence quantum yield (in Cc1ccccc1): 0.69
photoluminescence quantum yield (in ClCCl): 0.75

SMILES: CN(C)c1nc(N)c2nc(C#N)n(Cc3ccccc3)c2n1
photoluminescence quantum yield (in C1COCCO1): 0.92
photoluminescence quantum yield (in CC#N): 0.55
photoluminescence quantum yield (in CO): 0.8
photoluminescence quantum yield (in ClCCl): 0.95

SMILES: Nc1cccc2c1C(=O)c1ccccc1-2
photoluminescence quantum yield (in C1CCCCC1): 0.031
photoluminescence quantum yield (in CC#N): 0.057
photoluminescence quantum yield (in CCO): 0.068
photoluminescence quantum yield (in c1ccccc1): 0.055

SMILES: CC1(C)c2ccccc2N(c2ccc(-c3ncccn3)cc2)c2ccccc21
photoluminescence quantum yield (in O=P(c1ccccc1)(c1ccccc1)c1ccc2oc3ccc(P(=O)(c4ccccc4)c4ccccc4)cc3c2c1): 0.83

SMILES: CC[n+]1nc2cc3c4c(c2c2ccccc21)CCCN4CCC3
photoluminescence quantum yield (in O): 0.25

SMILES: CC1(C)c2ccccc2N(c2ccc3c(c2)-c2cc(N4c5ccccc5C(C)(C)c5ccccc54)ccc2P3(=O)c2ccccc2)c2ccccc21
photoluminescence quantum yield (in Cc1ccccc1): 0.55
photoluminescence quantum yield [1]: 0.56

SMILES: C1=Cc2ccccc2Cc2ccccc21
photoluminescence quantum yield (in CC#N): 0.82
photoluminescence quantum yield (in CO): 0.016

SMILES: N#C/C(=C\c1ccc(Cl)cc1)c1nc(-c2ccccc2)c(-c2ccccc2)s1
photoluminescence quantum yield (in CC#N): 0.004

SMILES: CC(C)(C)c1ccc2c(c1)c1cc(C(C)(C)C)ccc1n2-c1ccc(-c2ccc3c(c2)C(=O)c2ccc(-c4ccc(-n5c6ccc(C(C)(C)C)cc6c6cc(C(C)(C)C)ccc65)cc4)cc2C3=O)cc1
photoluminescence quantum yield (in Cc1ccccc1): 0.6
photoluminescence quantum yield [1]: 0.65

SMILES: C=C[Si](c1c2ccccc2cc2ccccc12)(c1c2ccccc2cc2ccccc12)c1c2ccccc2cc2ccccc12
photoluminescence quantum yield (in ClC(Cl)Cl): 0.017

SMILES: c1cc2c([nH]c3c4[nH]c5sccc5c4c4nsnc4c23)s1
photoluminescence quantum yield (in C1CCOC1): 0.38
photoluminescence quantum yield (in CCOC(C)=O): 0.34
photoluminescence quantum yield (in CN(C)C=O): 0.33
photoluminescence quantum yield (in Cc1ccccc1): 0.42
photoluminescence quantum yield (in ClCCl): 0.27

SMILES: CN(C)c1cccc2c1C(=O)c1ccccc1-2
photoluminescence quantum yield (in C1CCCCC1): 0.0016
photoluminescence quantum yield (in CC#N): 0.0027
photoluminescence quantum yield (in CCO): 0.004
photoluminescence quantum yield (in c1ccccc1): 0.0024

SMILES: Cc1cc(-c2ccc3ccccc3c2)cc(C)[o+]1
photoluminescence quantum yield (in ClCCl): 0.64

SMILES: c1ccc(-c2nc(-c3ccccc3)nc(-c3ccc(-n4c5ccccc5c5cc6c(cc54)C4(c5ccccc5-c5ccccc54)c4ccccc4-6)cc3)n2)cc1
photoluminescence quantum yield (in O=P(c1ccccc1)(c1ccccc1)c1ccccc1Oc1ccccc1P(=O)(c1ccccc1)c1ccccc1): 0.856

SMILES: CC(=O)Nc1ccc(S(=O)(=O)O)c(/N=N/c2c(O)c3ccccc3n(C)c2=O)c1
photoluminescence quantum yield (in CS(C)=O): 0.03

SMILES: Cc1cn2cc(-c3ccc(-c4ccccc4)cc3)[n-][n+]2c1
photoluminescence quantum yield (in ClCCl): 0.27

SMILES: CCn1c2cc(C(C)(C)C)ccc2c2c3nsnc3c3c4ccc(C(C)(C)C)cc4n(CC)c3c21
photoluminescence quantum yield (in CN(C)C=O): 0.07
photoluminescence quantum yield (in Cc1ccccc1): 0.08
photoluminescence quantum yield (in ClCCl): 0.07

SMILES: FC(F)(F)c1ccc(-c2ccc(-c3cc(-c4ccccn4)nc(-c4ccccn4)c3)cc2)cc1
photoluminescence quantum yield (in ClCCl): 0.17

SMILES: CCn1ncc2c3c(C#N)c4c5ccccc5n(C)c4nc3ccc21
photoluminescence quantum yield (in CCOC(C)=O): 0.56

SMILES: CC(C)(C)c1cc(-n2c(-c3ccc(C(=C(c4ccccc4)c4ccccc4)c4ccccc4)cc3)cc3c2cc(-c2ccc(C(=C(c4ccccc4)c4ccccc4)c4ccccc4)cc2)n3-c2cc(C(C)(C)C)cc(C(C)(C)C)c2)cc(C(C)(C)C)c1
photoluminescence quantum yield (in ClCCl): 0.0085

SMILES: CCOC(=O)c1cc(C(=O)OCC)c2ccc(N(C)C)cc2n1
photoluminescence quantum yield (in CCO): 0.41

SMILES: CCOC(=O)c1sc2nc(-c3ccccc3)c(C)c(C#N)c2c1N
photoluminescence quantum yield (in C1COCCO1): 0.024
photoluminescence quantum yield (in CC#N): 0.009
photoluminescence quantum yield (in CCOC(C)=O): 0.027
photoluminescence quantum yield (in ClC(Cl)Cl): 0.037
photoluminescence quantum yield (in c1ccccc1): 0.047

SMILES: C=CCNc1ccc2ccc3oc4cc(=O)ccc-4nc3c2c1
photoluminescence quantum yield (in CC#N): 0.03
photoluminescence quantum yield (in CCO): 0.04
photoluminescence quantum yield (in ClCCl): 0.06
photoluminescence quantum yield (in O): 0.007

SMILES: CN(C)c1ccc(/C=C/C=C/c2ccc([N+](=O)[O-])c(O)c2)cc1
photoluminescence quantum yield (in C1CCCCC1): 0.13
photoluminescence quantum yield (in C1COCCO1): 0.03
photoluminescence quantum yield (in CCCCCCC): 0.1
photoluminescence quantum yield (in Cc1ccccc1): 0.11

SMILES: c1cc2ccc3ccc4cc3c2cc1c1ccc2ccc3ccc(cc3c2c1)c1ccc2c(c1)c1cc4ccc1[C@]13OCCO[C@]21OCCO3
photoluminescence quantum yield (in Cc1ccccc1): 0.78

SMILES: CNc1ccc2c(c1)-c1ccccc1C2=O
photoluminescence quantum yield (in C1CCCCC1): 0.045
photoluminescence quantum yield (in CC#N): 0.064
photoluminescence quantum yield (in CCO): 0.0065
photoluminescence quantum yield (in c1ccccc1): 0.19

SMILES: CC1=CC(C)=[N+]2C1=Cc1cccn1[B-]2(F)F
photoluminescence quantum yield (in CCCCCC): 0.93
photoluminescence quantum yield (in CO): 0.99
photoluminescence quantum yield (in ClCCl): 0.87

SMILES: Cc1cc(-c2ccc(-n3c4ccccc4c4ccccc43)cc2)nc(-c2ccc(-n3c4ccccc4c4ccccc43)cc2)n1
photoluminescence quantum yield (in C1CCOC1): 0.59
photoluminescence quantum yield (in CN(C)C=O): 0.63
photoluminescence quantum yield (in Cc1ccccc1): 0.64
photoluminescence quantum yield (in ClC(Cl)Cl): 0.61

SMILES: COc1ccccc1C1=NC2c3cccc4cccc(c34)C2N1c1ccccc1 (stereo not drawn)
photoluminescence quantum yield (in Cc1ccccc1): 0.01

SMILES: c1ccc(-c2nnc(-c3cc(-n4c5ccccc5c5ccccc54)c(-n4c5ccccc5c5ccccc54)cc3-c3nnc(-c4ccccc4)o3)o2)cc1
photoluminescence quantum yield (in Cc1ccccc1): 0.383

SMILES: CCCCC(CC)CN1C(=O)c2cccc3c(C#Cc4ccc(N(c5ccc(C#Cc6ccc7c8c(cccc68)C(=O)N(CC(CC)CCCC)C7=O)cc5)c5ccc(C#Cc6ccc7c8c(cccc68)C(=O)N(CC(CC)CCCC)C7=O)cc5)cc4)ccc(c23)C1=O (stereo not drawn)
photoluminescence quantum yield (in C1CCCCC1): 0.064
photoluminescence quantum yield (in C1CCOC1): 0.027
photoluminescence quantum yield (in CC#N): 0.111
photoluminescence quantum yield (in Cc1ccccc1): 0.053
photoluminescence quantum yield (in ClC(Cl)Cl): 0.041

SMILES: CCCCC(CC)CN1C(=O)c2cc(Oc3ccc(OC)cc3)c3c4c(Oc5ccc(C(C)(C)C)cc5)cc5c6c(cc(Oc7ccc(C(C)(C)C)cc7)c(c7c(Oc8ccc(OC)cc8)cc(c2c37)C1=O)c64)C(=O)N(c1c(C(C)C)cccc1C(C)C)C5=O (stereo not drawn)
photoluminescence quantum yield (in Cc1ccccc1): 0.58

SMILES: CC(C)(C)c1cc2c(c(C(C)(C)C)c1)O[B-](F)(F)[n+]1c-2nc(-c2ccccc2)c2cc(Cl)ccc21
photoluminescence quantum yield (in Cc1ccccc1): 0.001
